Values of other authors in patent publication US5621142A, “Aminoalkylcyclopropane derivatives” (Asahi Kasei Kogyo Kabushiki Kaisha, priority 1994, dated 1997).

Legend:
[1] = test system: synaptosomal uptake of 5-HT; details: Neuropharmacology, Vol. 24, No. 12, 1211-1219, 1985
[2] = test system: synaptosomal uptake of norepipephrine; details: Neuropharmacology, Vol. 24, No. 12, 1211-1219, 1985

Compound: CCN(CC)C(=O)C1(c2ccccc2)CC1CN.Cl (centres unmarked) [compound (A), 1-phenyl-1-diethylaminocarbonyl-2-aminomethyl-cyclopropane hydrochloride]
- activity to inhibit the synaptosomal uptake of 5-HT [1]: has an activity to inhibit the synaptosomal uptake of norepipephrine and 5-HT
- activity to inhibit the synaptosomal uptake of norepipephrine [2]: has an activity to inhibit the synaptosomal uptake of norepipephrine and 5-HT
